The results in this text go back to patent publication US20250059205A1, “Heterocyclic Compounds and Methods of Use” (AMGEN INC., priority 2021, published 2025).

The target in test [1] is GDP-bound KRAS protein (aa 1-169), containing both G12D and C118A amino acid substitutions (Homo sapiens, UniProt P01116, C118A/G12D). The test is described as follows: KRAS G12D Coupled Nucleotide Exchange Assay. In kind it is biochemical. The settings on record: 2 h compound pre-incubation. Here is the method:
Following compound pre-incubation, purified SOS protein (aa 564-1049) and GTP (Roche 10106399001) were added to the assay wells and incubated for an additional 30 min. […] The assay plates were then read on a PerkinElmer EnVision Multilabel Reader, using AlphaScreen® technology, and data were analyzed using a 4-parameter logistic model to calculate IC50 values.

The subject of test [2] is Phosphorylation of ERK1/2 in A-427 cells. The test is described as follows: Phospho-ERK1/2 MSD Assay (A-427 cells). Type of test: cell-based. The settings on record: Homo sapiens, A-427, 2 h, 2 h treatment, read-out: p-ERK (A427 cells) IC50. The gist of the method:
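ERK1/2 phosphorylation measured by Meso Scale whole-cell lysate assay after A-427 cells were exposed to a titration of compound for 2 h at 37 °C.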

In test [3] the test system is Phosphorylation of ERK1/2 in AsPC-1 cells. The test is described as follows: Phospho-ERK1/2 MSD Assay (AsPC-1 cells). Type of test: cell-based. As to conditions: Homo sapiens, ASPC1, 2 h, 2 hours treatment, read-out: p-ERK (AsPC-1 cells) IC50. In a few lines:
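Read-out: MSD electrochemiluminescent detection of phosphorylated ERK1/2 in whole-cell lysates, fitted to a 4-parameter logistic curve for IC50. Prior to lysis, AsPC-1 cells (25,000 per well) received a 2 h compound dose-response at 37 °C.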

Test [4] addresses His-tagged KRAS G12D protein (Homo sapiens, UniProt P01116, G12D). The test is described as follows: KRAS G12D TR-FRET Assay. In kind it is binding. On the technique in general: In TR-FRET formats the signal depends on donor and acceptor labels being close together.

The structures appear in SMILES notation. pIC50: −log10 of the molar value.

GDP-bound KRAS protein (aa 1-169), containing both G12D and C118A amino acid substitutions, sequence (P01116 1-169 isoform P01116-2 G12D/C118A): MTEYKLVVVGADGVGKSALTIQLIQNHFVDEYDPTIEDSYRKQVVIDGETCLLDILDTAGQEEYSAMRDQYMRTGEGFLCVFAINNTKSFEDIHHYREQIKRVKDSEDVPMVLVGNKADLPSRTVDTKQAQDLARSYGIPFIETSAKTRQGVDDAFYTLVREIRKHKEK
His-tagged KRAS G12D protein, sequence (P01116 1-188 isoform P01116-2 G12D): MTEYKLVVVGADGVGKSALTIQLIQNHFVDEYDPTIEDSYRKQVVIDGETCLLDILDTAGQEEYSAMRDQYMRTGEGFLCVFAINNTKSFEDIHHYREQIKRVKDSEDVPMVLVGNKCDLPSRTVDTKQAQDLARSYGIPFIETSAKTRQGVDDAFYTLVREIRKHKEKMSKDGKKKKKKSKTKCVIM

The pIC50 is −log10 of the IC50, conventionally taken in molar units. Consider `Oc1cc(-c2c(F)cc3c(N4C[C@H]5C[C@@H](C4)N5)nc(OC[C@@]45CCCN4C[C@H](F)C5)nc3c2F)c2ccccc2c1` [Example 13, 4-(4-((1R,5S)-3,6-diazabicyclo[3.1. 1]heptan-3-yl)-6,8-difluoro-2-(((2R,7aS)-2-fluorotetrahydro-1H-pyrrolizin-7a(5H)-yl)methoxy)quinazolin-7-yl)naphthalen-2-ol], for which, in test [1], the “Avg 2 h Coupled Exchange IC50” value is 0.006 µM. For the same molecule, the pIC50 is 6.62 in test [2], 5.76 in test [3] and 8.15 in test [4].
The corresponding values for `Oc1cc(-c2ccc3c(N4C[C@@H]5CC[C@H]4CN5)nc(OC[C@@]45CCCN4C[C@H](F)C5)nc3c2)c2c(F)c(F)ccc2c1` [Example 113, 4-(4-((1S,4S)-2,5-diazabicyclo[2.2.2]octan-2-yl)-2-(((2R,7aS)-2-fluorotetrahydro-1H-pyrrolizin-7a(5H)-yl)methoxy)quinazolin-7-yl)-5,6-difluoronaphthalen-2-ol] are 0.002 µM, 6.99, 6.34 and 8.52.
The corresponding values for `Oc1ccc(Cl)c(-c2ccc3c(N4C[C@H]5CC[C@@H](C4)N5)nc(OC[C@@]45CCCN4C[C@H](F)C5)nc3c2)c1F` [Example 36, 3-(4-((1R,5S)-3,8-diazabicyclo[3.2. 1]octan-3-yl)-2-(((2R,7aS)-2-fluorotetrahydro-1H-pyrrolizin-7a(5H)-yl)methoxy)quinazolin-7-yl)-4-chloro-2-fluorophenol] are 0.082 µM, below 5.00, below 5.00 and 6.32.
The corresponding values for `CCc1c(F)ccc2cc(O)cc(-c3ccc4c(N5C[C@@H]6CC[C@H]5CN6)nc(OC[C@@]56CCCN5C[C@H](F)C6)nc4c3)c12` [Example 112, 4-(4-((1S,4S)-2,5-diazabicyclo[2.2.2]octan-2-yl)-2-(((2R,7aS)-2-fluorotetrahydro-1H-pyrrolizin-7a(5H)-yl)methoxy)quinazolin-7-yl)-5-ethyl-6-fluoronaphthalen-2-ol] are 0.002 µM, 7.43, 7.05 and 8.70.
`Oc1cc(-c2ccc3c(N4C[C@H]5CC[C@@H](C4)N5)nc(OC[C@]45CCCN4C[C@H](F)C5)nc3c2F)c2ccccc2c1` [Example 44, 4-(4-((1R,5S)-3,8-diazabicyclo[3.2. 1]octan-3-yl)-8-fluoro-2-(((2R,7aR)-2-fluorotetrahydro-1H-pyrrolizin-7a(5H)-yl)methoxy)quinazolin-7-yl)naphthalen-2-ol]: the “Avg 2 h Coupled Exchange IC50” value in test [1] amounted to 0.002 µM. Also, the pIC50 in test [2] was 7.72; in test [3] it was 6.94; in test [4], 8.70.
For `CN1CCC[C@H]1CCOc1nc(N2[C@@H]3CNC[C@H]2COC3)c2ccc(-c3cc(O)cc4ccccc34)c(F)c2n1` [Example 9, 4-(4-((1R,5S)-3-oxa-7,9-diazabicyclo[3.3. 1]nonan-9-yl)-8-fluoro-2-(2-((S)-1-methylpyrrolidin-2-yl)ethoxy)quinazolin-7-yl)naphthalen-2-ol] the same measures were 0.125 µM, below 4.60, below 4.60 and 6.34.
For the molecule `C#Cc1cccc2cc(O)cc(-c3c(F)cc4c(N5C[C@H]6C[C@@H](C5)N6)nc(OC[C@@]56CCCN5C[C@H](F)C6)nc4c3F)c12` [Example 183, 4-(4-((1R,5S)-3,6-diazabicyclo[3.1.1]heptan-3-yl)-6,8-difluoro-2-(((2R,7aS)-2-fluorotetrahydro-1H-pyrrolizin-7a(5H)-yl)methoxy)quinazolin-7-yl)-5-ethynylnaphthalen-2-ol], in test [1], the “Avg 2 h Coupled Exchange IC50” value was found to be 0.004 µM. Besides, the pIC50 in test [2] is 5.83; in test [3], 5.27; in test [4], 8.70.
For the molecule `Fc1c(-c2cc(C(F)F)cc3ccccc23)ccc2c(N3C[C@H]4CC[C@@H](C3)N4)nc(OC[C@@]34CCCN3C[C@H](F)C4)nc12` [Example 225, 4-((1R,5S)-3,8-diazabicyclo[3.2.1]octan-3-yl)-7-(3-(difluoromethyl)naphthalen-1-yl)-8-fluoro-2-(((2R,7aS)-2-fluorotetrahydro-1H-pyrrolizin-7a(5H)-yl)methoxy) quinazoline], the “Avg 2 h Coupled Exchange IC50” value in test [1] came to 0.044 µM. Further, the pIC50 in test [2] is 7.10; in test [3] it was 6.59; in test [4], 7.24.
With `Cc1cc2[nH]ncc2c(-c2ccc3c(N4[C@@H]5CC[C@H]4CNC5)nc(OC[C@@]45CCCN4C[C@H](F)C5)nc3c2)c1Cl` [Example 37, 4-((1R,5S)-3,8-diazabicyclo[3.2. 1]octan-8-yl)-7-(5-chloro-6-methyl-1H-indazol-4-yl)-2-(((2R,7aS)-2-fluorotetrahydro-1H-pyrrolizin-7a(5H)-yl)methoxy) quinazoline], the “Avg 2 h Coupled Exchange IC50” value in test [1] worked out at 0.073 µM. Besides, the figures for the pIC50 in test [2], in test [3] and in test [4] were below 5.00, 5.17 and 6.71, respectively.
For `CCc1c(F)ccc2cc(O)cc(-c3c(F)cc4c(N5C[C@H]6CC[C@@H](C5)N6)nc(OC[C@H]5CCC(=O)N5)nc4c3F)c12` [Example 127, (5R)-5-(((4-((1R,5S)-3,8-diazabicyclo[3.2.1]octan-3-yl)-7-(8-ethyl-7-fluoro-3-hydroxynaphthalen-1-yl)-6,8-difluoroquinazolin-2-yl)oxy)methyl) pyrrolidin-2-one] the same measures were 0.003 µM, 5.48, 5.12 and 7.92.
The corresponding values for `Oc1cc(-c2c(F)cc3c(N4C[C@@H]5CC[C@H]4CN5)nc(OC[C@@]45CCCN4C[C@H](F)C5)nc3c2F)c2c(F)c(F)ccc2c1` [Example 157, 4-(4-((1S,4S)-2,5-diazabicyclo[2.2.2]octan-2-yl)-6,8-difluoro-2-(((2R,7aS)-2-fluorotetrahydro-1H-pyrrolizin-7a(5H)-yl)methoxy)quinazolin-7-yl)-5,6-difluoronaphthalen-2-ol] are 0.004 µM, 8.05, 7.34 and 8.40.
For `Cc1ccc2[nH]nc(C)c2c1-c1c(F)cc2c(N3C[C@H]4CC[C@@H](C3)N4)nc(OC[C@@]34CCCN3C[C@H](F)C4)nc2c1F` [Example 208, 4-((1R,5S)-3,8-diazabicyclo[3.2.1]octan-3-yl)-7-(3,5-dimethyl-1H-indazol-4-yl)-6,8-difluoro-2-(((2R,7aS)-2-fluorotetrahydro-1H-pyrrolizin-7a(5H)-yl)methoxy) quinazoline] the same measures were 0.008 µM, 6.32, 6.07 and 7.74.
As to `CCc1c(F)ccc2cc(O)cc(-c3cc4nc(OC[C@@]56CCCN5C[C@H](F)C6)nc(N5C[C@H]6CC[C@@H](C5)N6)c4cc3O)c12` [Example 201, 4-((1R,5S)-3,8-diazabicyclo[3.2.1]octan-3-yl)-7-(8-ethyl-7-fluoro-3-hydroxynaphthalen-1-yl)-2-(((2R,7aS)-2-fluorotetrahydro-1H-pyrrolizin-7a(5H)-yl)methoxy) quinazolin-6-ol], the “Avg 2 h Coupled Exchange IC50” value in test [1] was determined as 0.006 µM. The figures for the pIC50 in test [2], in test [3] and in test [4] were 7.80, 7.35 and 8.52, respectively.
`C#Cc1cccc2cc(O)cc(-c3c(F)cc4c(N5C[C@@H]6CC[C@H]5CN6)nc(OC[C@@]56CCCN5C[C@H](F)C6)nc4c3F)c12` [Example 180, 4-(4-((1S,4S)-2,5-diazabicyclo[2.2.2]octan-2-yl)-6,8-difluoro-2-(((2R,7aS)-2-fluorotetrahydro-1H-pyrrolizin-7a(5H)-yl)methoxy)quinazolin-7-yl)-5-ethynylnaphthalen-2-ol]: the “Avg 2 h Coupled Exchange IC50” value in test [1] stood at 0.004 µM. The pIC50 in test [2] was 8.52; in test [3] it was 7.74; in test [4], 8.52.
For `CCc1c(F)ccc2cc(O)cc(-c3c(F)cc4c(N5[C@@H]6CC[C@H]5CNC6)nc(OC[C@@]56CCCN5C[C@H](F)C6)nc4c3F)c12` [Example 150, 4-(4-((1R,5S)-3,8-diazabicyclo[3.2.1]octan-8-yl)-6,8-difluoro-2-(((2R,7aS)-2-fluorotetrahydro-1H-pyrrolizin-7a(5H)-yl)methoxy)quinazolin-7-yl)-5-ethyl-6-fluoronaphthalen-2-ol], in test [1], the “Avg 2 h Coupled Exchange IC50” value was found to be 0.003 µM. The pIC50 in test [2] was 7.52; in test [3] it was 7.03; in test [4], 8.52.
Consider `Cc1cccc(-c2c(F)cc3c(N4C[C@H]5CC[C@@H](C4)N5)nc(OC[C@@]45CCCN4C[C@H](F)C5)nc3c2F)c1C(F)(F)F` [Example 149, 4-((1R,5S)-3,8-diazabicyclo[3.2.1]octan-3-yl)-6,8-difluoro-2-(((2R,7aS)-2-fluorotetrahydro-1H-pyrrolizin-7a(5H)-yl)methoxy)-7-(3-methyl-2-(trifluoromethyl)phenyl)quinazoline], for which the “Avg 2 h Coupled Exchange IC50” value in test [1] amounted to 0.002 µM. The pIC50 is 6.03 in test [2], 6.17 in test [3] and 8.30 in test [4].
